Measured values as given in the supplement of paper PMC10307832.

Columns and labels:
Experiment in all cases: relative viability (nuclei count vs DMSO), 5 days (fraction); higher = more cells survive
[1] = compound: O=C(Nc1cccc(C(F)(F)F)c1)Nc1cc(S(=O)(=O)NC2CC2)ccc1-c1ccsc1 [AGI-6780] + CC(=O)Nc1cccc(-n2c(=O)n(C3CC3)c(=O)c3c(Nc4ccc(I)cc4F)n(C)c(=O)c(C)c32)c1 [Trametinib] (partner 0.02 µM)
Outline: (§1)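 Each reported value is a median over duplicate plates. It expresses relative viability: treated-well nuclei count divided by vehicle-well nuclei count. Lung cancer cell lines in 1536-well plates were dosed by pin tool a day after seeding, alone with one drug or with a fixed anchor-drug dose plus five library-drug doses (not always all listed) in √10 steps, and nuclei were counted after 5 days.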

[2] = compound: O=C(Nc1cccc(C(F)(F)F)c1)Nc1cc(S(=O)(=O)NC2CC2)ccc1-c1ccsc1 [AGI-6780] + COc1cccc2cc(-c3nc([C@H]4CC[C@H](C(=O)O)CC4)n4ncnc(N)c34)[nH]c12 [OSI-027] (partner 0.5 µM)
Outline: as §1

[3] = compound: O=C(Nc1cccc(C(F)(F)F)c1)Nc1cc(S(=O)(=O)NC2CC2)ccc1-c1ccsc1 [AGI-6780] + CS(=O)(=O)CCNCc1ccc(-c2ccc3ncnc(Nc4ccc(OCc5cccc(F)c5)c(Cl)c4)c3c2)o1 [Lapatinib] (partner 2 µM)
Outline: as §1

[4] = compound: O=C(Nc1cccc(C(F)(F)F)c1)Nc1cc(S(=O)(=O)NC2CC2)ccc1-c1ccsc1 [AGI-6780] + C[C@]1(O)C[C@@H](c2nc(-c3ccc4ccc(-c5ccccc5)nc4c3)c3c(N)nccn32)C1 [Linsitinib] (partner 1 µM)
Outline: as §1

Cell Line | relative viability ([1]; first compound 0.08 µM) | relative viability ([1]; first compound 0.253 µM) | relative viability ([1]; first compound 0.8 µM) | relative viability ([1]; first compound 2.53 µM) | relative viability ([1]; first compound 8 µM) | relative viability ([2]; first compound 0.08 µM) | relative viability ([2]; first compound 0.253 µM) | relative viability ([2]; first compound 0.8 µM) | relative viability ([2]; first compound 2.53 µM) | relative viability ([2]; first compound 8 µM) | relative viability ([3]; first compound 0.08 µM) | relative viability ([3]; first compound 0.253 µM) | relative viability ([3]; first compound 0.8 µM) | relative viability ([3]; first compound 2.53 µM) | relative viability ([3]; first compound 8 µM) | relative viability ([4]; first compound 0.08 µM) | relative viability ([4]; first compound 0.253 µM) | relative viability ([4]; first compound 0.8 µM) | relative viability ([4]; first compound 2.53 µM) | relative viability ([4]; first compound 8 µM)
NCI-H23 | 0.394 | 0.39 | 0.375 | 0.272 | 0.494 | 0.705 | 0.623 | 0.747 | 0.346 | 0.672 | 1.17 | 1.26 | 1.45 | 0.931 | 1.15 | 0.622 | 0.582 | 0.693 | 0.39 | 0.672
NCI-H322M |  | 0.525 | 0.525 | 0.547 | 0.499 | 0.557 | 0.562 | 0.645 | 0.544 | 0.64 | 0.638 | 0.57 | 0.608 | 0.552 | 0.626 | 0.883 | 0.969 | 1.03 | 0.772 | 0.878
NCI-H358 | 0.139 | 0.174 | 0.132 | 0.112 | 0.136 | 0.846 | 0.753 | 0.778 | 0.467 | 0.79 | 0.517 | 0.6 | 0.473 | 0.375 | 0.417 | 0.792 | 0.721 | 0.752 | 0.551 | 0.663
NCI-H460 | 0.286 | 0.149 | 0.117 | 0.1 | 0.167 | 0.752 | 0.639 | 0.845 | 0.574 | 0.694 | 0.872 | 1.03 | 1.03 | 1.07 | 1.11 | 0.796 | 0.788 | 0.936 | 0.741 | 0.72
NCI-H520 | 0.652 | 0.628 | 0.58 | 0.593 | 0.666 | 0.293 | 0.3 | 0.303 | 0.189 | 0.28 | 0.913 | 0.983 | 0.981 | 0.775 | 0.968 | 1.04 | 0.959 | 0.979 | 0.753 | 1.04
NCI-H596 | 0.841 | 0.712 | 0.655 | 0.652 | 0.777 | 0.803 | 0.841 | 0.643 |  | 0.647 | 0.841 | 1.13 | 1.05 | 0.886 | 1.08 | 1.24 | 1.09 | 0.961 | 0.931 | 1.12
NCI-H647 | 0.499 | 0.505 | 0.476 | 0.45 | 0.474 | 0.784 | 0.657 | 0.673 | 0.668 | 0.714 | 0.919 | 1.18 | 1.06 | 0.955 | 1.3 | 1.17 | 1.19 | 1.12 | 1.14 | 1.2
NCI-H650 | 0.989 | 1.07 | 0.935 | 0.823 | 0.964 | 0.509 | 0.59 | 0.462 | 0.443 | 0.475 | 0.922 | 1.07 | 1.17 | 0.859 | 1.05 | 0.906 | 0.867 | 0.992 | 0.883 | 0.895
NCI-H661 | 0.671 | 0.61 | 0.558 | 0.542 | 0.62 | 0.722 | 0.745 | 0.933 | 0.661 | 0.772 | 0.549 | 0.518 | 0.616 | 0.474 | 0.516 | 0.624 | 0.53 | 0.599 | 0.458 | 0.534
NCI-H727 | 0.415 | 0.396 | 0.372 | 0.365 | 0.38 | 0.639 | 0.821 | 0.617 | 0.494 | 0.685 | 1.05 | 0.961 | 0.93 | 0.712 | 0.811 | 0.285 | 0.331 | 0.325 | 0.235 | 0.285
NCI-H838 | 0.505 | 0.517 | 0.481 | 0.474 | 0.531 | 0.424 | 0.434 | 0.357 | 0.378 | 0.39 | 1.18 | 0.99 | 1.05 | 0.871 | 1.23 | 1.12 | 0.964 | 1.07 | 0.851 | 0.908
NCI-H1355 | 0.426 | 0.496 | 0.465 | 0.354 | 0.404 | 0.444 | 0.456 | 0.422 | 0.303 | 0.401 | 1.03 | 1.04 | 0.944 | 0.685 | 0.96 | 0.842 | 0.835 | 0.831 | 0.665 | 0.821
NCI-H1395 | 0.984 | 1.01 | 1.04 | 0.975 | 1.06 | 0.632 | 0.846 | 0.674 | 0.53 | 0.662 | 0.941 | 1.06 | 1.01 |  | 1.04 | 1.14 | 1.16 | 1.12 |  | 1.14
NCI-H1437 | 0.537 | 0.548 | 0.512 | 0.406 | 0.522 | 0.851 | 0.86 | 0.859 | 0.898 | 0.927 | 0.825 | 0.834 | 0.863 | 0.838 | 0.941 | 1.11 | 1.01 | 1.07 | 1.03 | 0.983
NCI-H1651 | 0.816 | 0.82 | 0.833 | 0.73 | 0.839 | 0.659 | 0.684 | 0.731 | 0.691 | 0.661 | 0.83 | 0.911 | 0.959 | 0.805 | 1.04 | 0.959 | 0.966 | 0.982 | 0.876 | 0.837
NCI-H1666 | 0.936 | 0.885 | 0.836 | 0.776 | 0.93 | 0.899 | 0.828 | 0.809 | 0.761 | 1.01 | 0.784 | 0.597 | 0.578 |  | 0.73 | 0.947 | 0.92 | 0.811 |  | 0.927
NCI-H1734 | 0.74 | 0.646 | 0.63 | 0.474 | 0.758 | 0.588 | 0.665 | 0.621 | 0.442 | 0.573 | 0.961 | 1.09 | 1.07 |  | 1.07 | 1.01 | 0.975 | 0.728 |  | 0.945
NCI-H1755 | 0.721 | 0.775 | 0.723 | 0.737 | 0.802 | 0.836 | 0.758 | 0.677 | 0.503 | 0.666 | 1.03 | 0.959 | 0.984 | 0.936 | 1.04 | 0.987 | 1.01 | 0.999 | 0.974 | 0.923
NCI-H1792 | 0.532 | 0.332 | 0.611 |  | 0.483 |  | 0.71 | 0.704 | 0.663 | 0.643 | 0.805 | 0.893 | 1.14 | 0.883 | 0.914 | 0.53 | 0.519 | 0.519 | 0.544 | 0.408
NCI-H1793 | 0.393 | 0.359 | 0.479 | 0.416 | 0.423 | 0.302 | 0.27 | 0.359 | 0.197 | 0.293 | 0.819 | 0.811 | 0.779 | 0.491 | 0.723 | 0.849 | 0.881 | 1.11 | 0.526 | 0.93
NCI-H1915 | 0.314 | 0.304 | 0.298 | 0.246 | 0.274 | 0.678 | 0.663 | 0.594 | 0.465 | 0.623 | 0.96 | 0.989 | 0.988 | 0.982 | 0.977 | 1.1 | 1.04 | 1.08 | 1.06 | 1.08
NCI-H1944 | 0.458 | 0.417 | 0.463 |  | 0.425 | 0.414 | 0.466 | 0.461 |  | 0.425 | 0.928 | 0.861 | 0.784 | 0.544 | 0.92 | 1.22 | 1.28 | 1.24 | 0.931 | 1.13
NCI-H1975 | 0.369 | 0.348 | 0.29 | 0.207 | 0.322 | 0.813 | 0.751 | 0.767 |  | 0.67 | 0.861 | 1.01 | 0.801 | 0.875 | 0.951 | 1.11 | 0.986 | 0.912 | 1.07 | 0.969
NCI-H1993 | 0.639 | 0.562 | 0.535 |  | 0.604 | 0.367 | 0.614 | 0.46 | 0.588 | 0.554 | 0.91 | 0.86 | 0.804 | 0.749 | 0.933 | 0.808 | 0.801 | 0.765 | 0.703 | 0.682
NCI-H2009 | 0.264 | 0.272 | 0.243 | 0.202 | 0.225 | 0.667 | 0.7 | 0.575 | 0.668 | 0.696 | 0.952 | 0.889 | 0.976 | 0.917 | 0.959 | 1.18 | 1.21 | 1.12 | 1.25 | 1.15
NCI-H2023 | 0.691 | 0.527 | 0.497 | 0.5 | 0.526 | 0.434 | 0.455 | 0.447 | 0.301 | 0.337 | 0.902 | 0.992 | 1 | 0.556 | 0.906 | 0.711 | 0.677 | 0.697 | 0.648 | 0.698
NCI-H2085 | 0.651 | 0.581 | 0.526 | 0.666 | 0.735 | 0.77 | 0.825 | 0.805 | 0.513 | 0.89 | 0.787 | 0.771 | 0.843 | 0.724 | 0.78 | 1.01 | 0.87 | 0.781 | 0.921 | 1.07
